Experimental data reported in patent US20200390909A1, “DRUG FRAGMENT IMAGING AGENT CONJUGATES” (The Board of Trustees of the Leland Stanford Junior …, priority 2018, published 2020).

Experiments:
breast tumor = test: NIRF imaging of breast tumor after oral gavage of systemic functional dye; assay type: in vivo, mouse
Description: FIG. 6A-6D. Highlighting a breast tumor following oral administration of an exemplary systemic functional dye (Compound (8), SU780). FIG. 6A NIRF imaging of the intact mouse 24 h post oral gavage of SU780.
A wild type with an unidentified spontaneous flank tumor received an oral gavage of Compound (8) (SU780) (0.4 mg/kg). The following day, the animal was sacrificed, and the tumor was subjected to NIRF imaging.
Shown in FIG. 6 is the highlighting of a breast tumor following oral administration of the systemic functional dye Compound (8) (SU780).

[1] = systemically administered, clinical optical contrast agent; cited from earlier work

| SMILES | localisation in H&E processed tumor section (breast tumor; after tissue processing for H&E) | fluorescence of residual tumor tissue in resection bed (image-guided resection) (breast tumor; after tumor resection, oral gavage) | highlighting of tumor by NIRF imaging after oral administration (breast tumor; mouse with spontaneous flank (breast) tumor, oral gavage 0.4 mg/kg, following day, resected tumor) | NIRF signal at tumor margin / tumor infiltration into normal tissue (tissue section) (breast tumor; oral gavage 0.4 mg/kg, 0.4 mg/kg) | NIRF signal at tumor margin / tumor infiltration into normal tissue (tissue section) (breast tumor; oral gavage 0.4 mg/kg, listed as SU780, 0.4 mg/kg) | TBR [1] |
| --- | --- | --- | --- | --- | --- | --- |
| CCCN1/C(=C/C=C2\CCCC(/C=C/C3=[N+](CCC)c4ccccc4C3(C)C)=C2Nc2ccc(NC(=O)CN3CCOCC3)cc2)C(C)(C)c2ccccc21 [Compound (8)] | highlights mainly epithelial cancer cells | residual tumor tissue was fluorescing in the resection bed | highlights the tumor | perfect correlation with tumor infiltration into normal tissues | highlights the finger-like infiltration of the breast cancer cells into normal mammary fat pad |  |
| CC1(C)C(/C=C/C2=C(Oc3ccc(C[C@H](NC(=O)c4ccc(NCc5cnc6nc(N)[nH]c(=O)c6n5)cc4)C(=O)[O-])cc3)C(=C/C=C3\N(CCCCS(=O)(=O)[O-])c4ccc(S(=O)(=O)[O-])cc4C3(C)C)/CCC2)=[N+](CCCCS(=O)(=O)[O-])c2ccc(S(=O)(=O)[O-])cc21.[H+].[H+].[H+].[H+] [OTL38] |  |  |  |  |  | 4.4 |
